According to BindingDB's records for doi:10.1021/jm970326r (University of Minnesota, 1998):

Experiments:
[1] = molecular target: Vesicular acetylcholine transporter (Torpedo); experiment: Binding to vesicular acetylcholine transporter of torpedo synaptic vesicles
[2] = molecular target: Sigma non-opioid intracellular receptor 1 (Cavia porcellus) (UniProt Q60492); experiment: Sigma-1 binding assay was done in guinea pig membranes by labeling the binding site with [3H](+)-pentazocine
[3] = Sigma-1 binding assay was done in guinea pig membranes by labeling the binding site with [3H](+)-pentazocine.

Chain of Sigma non-opioid intracellular receptor 1 (Cavia porcellus) (Q60492 whole entry, looked up): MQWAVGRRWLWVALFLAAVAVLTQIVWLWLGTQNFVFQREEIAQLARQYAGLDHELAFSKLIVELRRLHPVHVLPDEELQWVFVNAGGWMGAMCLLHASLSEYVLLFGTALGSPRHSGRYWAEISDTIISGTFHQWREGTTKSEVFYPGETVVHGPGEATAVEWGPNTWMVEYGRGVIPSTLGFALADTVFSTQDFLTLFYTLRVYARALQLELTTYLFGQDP

OC(CN1C2CCC1CC(c1ccccc1)C2)c1ccccc1 (stereo not given) [1-Phenyl-2-(3-phenyl-8-aza-bicyclo[3.2.1]oct-8-yl)-ethanol]
Ki [1]: 474 nM

CN1CC2(CCN(C[C@H](O)c3cccc(Br)c3)CC2)c2ccccc21 [(1R)-1-(3-bromophenyl)-2-(1-methyl-1,2-dihydro-1'H-spiro[indole-3,4'-piperidin]-1'-yl)ethanol]
Ki [1]: 182 nM
Ki [2]: 518 nM

O=C(CCCN1CCC2(CCc3ccccc32)CC1)c1ccc(F)cc1 [1-(4-fluorophenyl)-4-spiro[2,3-dihydro-1H-indene-1,4'-(hexahydropyridine)]-1-yl-1-butanone]
Ki [2]: 1.8 nM

OC(CCCN1C2CCC1CC(c1ccccc1)C2)c1ccc(F)cc1 (stereo not given) [1-(4-Fluoro-phenyl)-4-(3-phenyl-8-aza-bicyclo[3.2.1]oct-8-yl)-butan-1-ol]
Ki [1]: 380 nM

O[C@@H](CN1CCC2(CCc3ccccc32)CC1)c1cccc(Br)c1 [(1R)-1-(3-bromophenyl)-2-(2,3-dihydro-1'H-spiro[indene-1,4'-piperidin]-1'-yl)ethanol]
Ki [1]: 600 nM
Ki [2]: 107 nM

O[C@H]1Cc2ccccc2C[C@@H]1N1C2CCC1CC(c1ccccc1)C2 (stereo partly drawn) [(2S,3S)-3-(3-Phenyl-8-aza-bicyclo[3.2.1]oct-8-yl)-1,2,3,4-tetrahydro-naphthalen-2-ol]
Ki [1]: 8.5 nM
Ki [2]: 175 nM

O[C@H]1CCN(Cc2cccc(I)c2)C[C@@H]1N1C2CCC1CC(c1ccccc1)C2 (stereo partly drawn) [(3S,4S)-1-(3-Iodo-benzyl)-3-(3-phenyl-8-aza-bicyclo[3.2.1]oct-8-yl)-piperidin-4-ol]
Ki [2]: 194 nM

OC(CN1C2CCC1CC(c1ccccc1)C2)c1cccc(Br)c1 (stereo not given) [1-(3-Bromo-phenyl)-2-(3-phenyl-8-aza-bicyclo[3.2.1]oct-8-yl)-ethanol]
Ki [2]: 117 nM

OC(CN1C2CCC1CC(c1ccccc1)C2)c1ccccc1Br (stereo not given) [1-(2-Bromo-phenyl)-2-(3-phenyl-8-aza-bicyclo[3.2.1]oct-8-yl)-ethanol]
Ki [1]: 130 nM
Ki [3]: 95.7 nM

O[C@H]1CCCC[C@@H]1N1C2CCC1CC(c1ccccc1)C2 (stereo partly drawn) [(1S,2S)-2-(3-Phenyl-8-aza-bicyclo[3.2.1]oct-8-yl)-cyclohexanol]
Ki [2]: 380 nM

O=C(CN1C2CCC1CC(c1ccccc1)C2)c1ccc(F)cc1 (stereo not given) [1-(4-Fluoro-phenyl)-2-(3-phenyl-8-aza-bicyclo[3.2.1]oct-8-yl)-ethanone]
Ki [1]: 3400 nM
Ki [2]: 281 nM

O[C@@H]1Cc2ccccc2C[C@H]1N1CCC2(CCc3ccccc32)CC1 [3-spiro[2,3-dihydro-1H-indene-1,4'-(hexahydropyridine)]-1-yl-(2R,3R)-1,2,3,4-tetrahydro-2-naphthalenol]
Ki [1]: 0.36 nM

O[C@@H]1CCN(Cc2ccc(F)cc2)C[C@H]1N1CCC2(CCc3ccccc32)CC1 [1-(4-fluorobenzyl)-3-spiro[2,3-dihydro-1H-indene-1,4'-(hexahydropyridine)]-1-yl-(3R,4R)-hexahydro-4-pyridinol]
Ki [1]: 0.36 nM
Ki [2]: 25 nM

OC(CN1C2CCC1CC(c1ccccc1)C2)c1ccc(Cl)c(Cl)c1 (stereo not given) [1-(3,4-Dichloro-phenyl)-2-(3-phenyl-8-aza-bicyclo[3.2.1]oct-8-yl)-ethanol]
Ki [1]: 60 nM
Ki [2]: 249 nM

OC(CN1C2CCC1CC(c1ccccc1)C2)c1c(Cl)cccc1Cl (stereo not given) [1-(2,6-Dichloro-phenyl)-2-(3-phenyl-8-aza-bicyclo[3.2.1]oct-8-yl)-ethanol]
Ki [2]: 302 nM

O[C@@H]1CCN(Cc2cccc(I)c2)C[C@H]1N1CCC2(CCc3ccccc32)CC1 [1-(3-iodobenzyl)-3-spiro[2,3-dihydro-1H-indene-1,4'-(hexahydropyridine)]-1-yl-(3R,4R)-hexahydro-4-pyridinol]
Ki [2]: 283 nM

O[C@H]1CCN(Cc2ccc(F)cc2)C[C@@H]1N1C2CCC1CC(c1ccccc1)C2 (stereo partly drawn) [(3S,4S)-1-(4-Fluoro-benzyl)-3-(3-phenyl-8-aza-bicyclo[3.2.1]oct-8-yl)-piperidin-4-ol]
Ki [1]: 325 nM
Ki [2]: 240 nM

OC(Cc1ccc(Br)cc1)CN1C2CCC1CC(c1ccccc1)C2 (stereo not given) [1-(4-Bromo-phenyl)-3-(3-phenyl-8-aza-bicyclo[3.2.1]oct-8-yl)-propan-2-ol]
Ki [2]: 30.9 nM

O[C@H](Cc1ccc(Br)cc1)CN1CCC2(CCc3ccccc32)CC1 [(2R)-1-(4-bromophenyl)-3-{2,3-dihydrospiro[indene-1,4'-piperidine]-1'-yl}propan-2-ol]
Ki [1]: 86 nM

CN1CC2(CCN(C[C@H](O)Cc3ccc(Br)cc3)CC2)c2ccccc21 [(2R)-1-(4-bromophenyl)-3-{1-methyl-1,2-dihydrospiro[indole-3,4'-piperidine]-1'-yl}propan-2-ol]
Ki [1]: 420 nM
Ki [2]: 191 nM

O[C@@H]1CCCC[C@H]1N1CCC2(CCc3ccccc32)CC1 [(1R,2R)-2-(2,3-dihydro-1'H-spiro[indene-1,4'-piperidin]-1'-yl)cyclohexanol]
Ki [1]: 7.6 nM
Ki [2]: 21 nM

O=C(CCCN1C2CCC1CC(c1ccccc1)C2)c1ccc(F)cc1 (stereo not given)
Ki [2]: 34.1 nM

CN1CC2(CCN([C@@H]3CN(Cc4cccc(I)c4)CC[C@H]3O)CC2)c2ccccc21 [1-(3-Iodobenzyl)-3-[1-methylspiro[2,3-dihydro-1H-indole-3,4'-(hexahydropyridine)]-1-yl]-(3R,4R)-hexahydro-4-pyridinol]
Ki [1]: 17 nM
Ki [2]: 122 nM

OC(CN1CCC(c2ccccc2)CC1)c1ccc(Br)cc1 (stereo not given) [1-(4-Bromo-phenyl)-2-(4-phenyl-piperidin-1-yl)-ethanol]
Ki [1]: 30 nM

OC(CN1C2CCC1CC(c1ccccc1)C2)c1ccc(Br)cc1 (stereo not given) [1-(4-Bromo-phenyl)-2-(3-phenyl-8-aza-bicyclo[3.2.1]oct-8-yl)-ethanol]
Ki [1]: 144 nM
Ki [2]: 17.5 nM

CN1CC2(CCN(CCCC(=O)c3ccc(F)cc3)CC2)c2ccccc21 [1-(4-fluorophenyl)-4-[1-methylspiro[2,3-dihydro-1H-indole-3,4'-(hexahydropyridine)]-1-yl]-1-butanone]
Ki [2]: 110 nM

CN1CC2(CCN([C@@H]3CCCC[C@H]3O)CC2)c2ccccc21 [(1R,2R)-2-(1-methyl-1,2-dihydro-1'H-spiro[indole-3,4'-piperidin]-1'-yl)cyclohexanol]
Ki [1]: 74 nM
Ki [2]: 286 nM
